Experimental data published in patent publication US5215916A, “Super glucocorticoid receptors: receptors with increased affinity and specificity for glucocorticoid steriods” (priority 1991, dated 1993).

These compounds were tested against T1, C640S mutant glucocorticoid receptor (Rattus norvegicus, UniProt P06536, C640S/D98G) (assay: Competition binding assay with [3H]Dex, COS-7 cytosol, C640S receptor).
T1 construct: Thus the full length receptor was removed from the VARO vector with BamHI and inserted into the SVL vector; expressed in transfected cells; host or cells: COS-7 (cytosol)
T1 sequence (P06536 1-795 D98G/C640S): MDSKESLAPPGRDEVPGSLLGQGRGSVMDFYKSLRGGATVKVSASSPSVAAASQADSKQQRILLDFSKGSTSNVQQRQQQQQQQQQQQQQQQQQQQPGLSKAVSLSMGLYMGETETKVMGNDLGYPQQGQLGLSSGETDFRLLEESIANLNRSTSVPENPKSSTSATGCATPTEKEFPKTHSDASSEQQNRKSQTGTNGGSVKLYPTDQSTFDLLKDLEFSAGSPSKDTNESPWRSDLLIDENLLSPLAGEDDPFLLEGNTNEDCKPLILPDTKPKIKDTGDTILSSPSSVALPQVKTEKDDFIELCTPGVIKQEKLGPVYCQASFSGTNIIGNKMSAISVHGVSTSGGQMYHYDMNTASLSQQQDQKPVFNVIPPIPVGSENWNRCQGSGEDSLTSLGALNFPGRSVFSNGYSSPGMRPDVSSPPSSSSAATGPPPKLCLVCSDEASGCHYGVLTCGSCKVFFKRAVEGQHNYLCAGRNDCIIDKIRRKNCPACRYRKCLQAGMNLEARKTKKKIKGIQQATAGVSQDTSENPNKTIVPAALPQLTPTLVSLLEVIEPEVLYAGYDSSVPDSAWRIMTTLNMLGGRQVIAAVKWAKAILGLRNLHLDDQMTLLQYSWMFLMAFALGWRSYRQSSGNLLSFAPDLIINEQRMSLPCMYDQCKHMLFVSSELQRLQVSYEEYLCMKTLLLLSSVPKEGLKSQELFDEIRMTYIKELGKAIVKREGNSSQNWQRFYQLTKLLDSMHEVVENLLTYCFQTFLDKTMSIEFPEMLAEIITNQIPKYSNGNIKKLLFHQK
Experimental: Monolayer cultures of COS-7 cells were grown in DMEM (Gibco) supplemented with 5% fetal bovine serum (FBS) (Biofluids) at 37° C. in a 5% CO2 incubator. Standard calcium phosphate transfection methods were used to introduce the wild type and mutant receptor expression vectors (pSVL) into COS-7 cells (100 mm plates [Costar] at a cell density of about 10^6 /plate were each treated with 10 μg of plasmid DNA). After ~16 hrs of incubation at 37° C. in a 5% CO2 incubator, the excess calcium phosphate and precipitate were removed by washing with phosphate buffered saline (PBS). The cells were incubated at 37° C. for another ~48 hr in DMEM/ 5% FBS and harvested by trypsinization followed by centrifugation (for 10 min at 1570 ×g) and washing 3 times with PBS. The washed cells were stored at -80° C. until used.
COS-7 cell cytosol containing the steroid-free receptors was prepared by cell lysis at -80° C. and centrifugation at 15,000 ×g and labeled as described for HTC cells (S. S. Simons and P. A. Miller, Biochem 23:6876-6882 (1984)). […] The specifically bound [^3 H]Dex was determined by first adding a 10% dextran-coated charcoal solution (added volume =20% of reaction solution volume) to remove free steroid and then subtracting the nonspecific binding seen in the presence of excess nonradioactive Dex.
Duplicate aliquots (72 μl) of COS-7 cell cytosol (33.5% in pH 8.8 TAPS/27 mM Na2 MoO4 buffer) were treated with 4 μl each of [^3 H]Dex (in pH 8.8 TAPS buffer) and various concentrations of non-radioactive competing steroid (in 20% EtOH in pH 8.8 TAPS buffer) (final concentration of [^3 H]Dex ≈3 ×10^-8 M). The average specific binding was determined after 2.5 or 24 hr of incubation as described above, expressed as percentage of the non-competed control and plotted versus the log10 of the concentration of the competing steroid.
The specificity of steroid binding was determined by Rodbard correction (Rodbard, 1973) of the data from a competition binding assay (S. S. Simons et al., Biochem. Biophys. Res. Comm. 86:793-800 (1979); Miller and Simons, 1988). […]

| SMILES | Relative Ka of Steroid Binding to Receptor |
| --- | --- |
| CC#C[C@]1(O)CC[C@H]2[C@@H]3CCC4=CC(=O)CCC4=C3[C@@H](c3ccc(N(C)C)cc3)C[C@@]21C [RU486] | 6.8 ± 2.2 |
| C[C@]12CCC(=O)C=C1CC[C@@H]1[C@@H]2[C@@H](O)C[C@]2(C=O)[C@@H](C(=O)CO)CC[C@@H]12 [Aldosterone, aldosterone] | 0.18 ± 0.002 |
| C[C@]12CC[C@@H]3c4ccc(O)cc4CC[C@H]3[C@@H]1CC[C@@H]2O [17β-Estradiol, 17β-estradiol] | 0.010 ± 0.007 |
